Experimental data taken from patent US9745360B2 (Sanofi, priority 2012, dated 2017).
Values after ≈ are worked out from the molar mass of the structure shown. Read-outs that look alike come from different tables or passages of the source. *1 amine or outer side, *2 acyl side, *3 side chain or, on linkers, in order; H or OH if unused. Where a SMILES comes first, the peptide text is derived from it. Side-chain parts run from the residue outwards. [ ]: non-standard residue; d: D form. The star is where a group is joined. γGlu = O=C(O)[C@H](CCC(=O)[*:2])N[*:1]; Stearoyl = CCCCCCCCCCCCCCCCCC(=O)*; Palmitoyl = CCCCCCCCCCCCCCCC(=O)*; d(αMeK) = C[C@@](N)(CCCCN)C(=O)O; αMeOrn = C[C@](N)(CCCN)C(=O)O; αMeK = C[C@](N)(CCCCN)C(=O)O; Api = NC1(C(=O)O)CCNCC1; Aib = CC(C)(N)C(=O)O

Key:
[1] = Chemical stability in solution, 7 days at 25° C., % remaining peptide; assay type: physicochemical; conditions: % remaining peptide after 7 days at 25° C.
Description: The chemical stability is expressed as “% remaining peptide”.
(§1) Solubility and chemical stability of peptidic compounds were assessed as described in Methods.

[2] = Solubility testing in buffer, HPLC-UV of supernatant; assay type: physicochemical; conditions: target concentration 1.0 mg/mL; for solubility at 2 h: buffer
Description: as §1

[3] = molecular target: T1, human GIP receptor (hGIP R) (Homo sapiens, UniProt P48546); assay: cAMP response (HTRF) of HEK-293 cells stably expressing human GIP receptor; assay type: cell-based; conditions: Table 7; cAMP formation
T1 construct: expressed in transfected cells
T1 sequence (P48546 22-466): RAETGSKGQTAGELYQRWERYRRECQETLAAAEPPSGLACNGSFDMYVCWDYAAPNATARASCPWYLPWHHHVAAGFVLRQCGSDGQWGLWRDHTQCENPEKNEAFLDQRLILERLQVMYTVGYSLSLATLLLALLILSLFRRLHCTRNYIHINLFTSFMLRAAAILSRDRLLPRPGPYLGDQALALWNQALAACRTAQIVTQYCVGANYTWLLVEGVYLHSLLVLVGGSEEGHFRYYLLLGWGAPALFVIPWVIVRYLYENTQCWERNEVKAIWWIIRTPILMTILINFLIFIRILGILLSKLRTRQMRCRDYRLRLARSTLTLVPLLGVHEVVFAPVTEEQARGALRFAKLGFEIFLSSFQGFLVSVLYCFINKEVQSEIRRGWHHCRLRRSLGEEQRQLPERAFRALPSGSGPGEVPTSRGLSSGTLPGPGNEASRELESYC
Description: (§2) cAMP content of cells was determined using a kit from Cisbio Corp. (cat. no. 62AM4PEC) based on HTRF (Homogenous Time Resolved Fluorescence). For preparation, cells were split into T175 culture flasks and grown overnight to near confluency in medium (DMEM/10% FBS). Medium was then removed and cells washed with PBS lacking calcium and magnesium, followed by proteinase treatment with accutase (Sigma-Aldrich cat. no. A6964). Detached cells were washed and resuspended in assay buffer (1×HBSS; 20 mM HEPES, 0.1% BSA, 2 mM IBMX) and cellular density determined. They were then diluted to 400000 cells/ml and 25 μl-aliquots dispensed into the wells of 96-well plates. For measurement, 25 μl of test compound in assay buffer was added to the wells, followed by incubation for 30 minutes at room temperature.

[4] = molecular target: T2, human GLP-1 receptor (hGLP-1 R) (Homo sapiens, UniProt P43220); assay: cAMP response (HTRF) of HEK-293 cells stably expressing human GLP-1 receptor; assay type: cell-based; conditions: Table 7; cAMP formation
T2 construct: expressed in transfected cells
T2 sequence (P43220 24-463): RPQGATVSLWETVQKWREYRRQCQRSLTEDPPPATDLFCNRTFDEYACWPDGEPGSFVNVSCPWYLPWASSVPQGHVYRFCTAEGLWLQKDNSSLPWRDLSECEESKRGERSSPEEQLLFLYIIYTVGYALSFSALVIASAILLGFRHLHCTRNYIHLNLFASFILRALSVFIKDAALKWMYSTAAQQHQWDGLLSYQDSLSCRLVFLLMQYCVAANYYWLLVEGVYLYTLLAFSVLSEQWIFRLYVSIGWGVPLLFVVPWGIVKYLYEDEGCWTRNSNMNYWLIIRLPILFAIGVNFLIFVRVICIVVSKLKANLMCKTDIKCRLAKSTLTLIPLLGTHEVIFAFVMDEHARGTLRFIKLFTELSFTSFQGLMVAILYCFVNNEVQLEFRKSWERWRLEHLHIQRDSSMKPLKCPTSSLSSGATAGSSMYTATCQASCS
Description: as §2

[5] = test system: non-fasted female diabetic dbdb-mice; assay: Glucose lowering in non-fasted female diabetic dbdb-mice; assay type: in vivo; conditions: 3 μg/kg s.c., at 240 min, kept to 480 min, baseline 20-22 mmol/l
Text: Female diabetic dbdb-mice of mean non-fasted glucose value of 20-22 mmol/l and a body weight of 42 g+/−0.6 g (SEM) were used. Mice were individually marked and were adapted to housing conditions for at least one week.
3-5 days prior to study start mice were assigned to groups and cages (4 mice per cage, 8 per group, control group 16) according to their non-fasted glucose values to ensure even distribution of lower and higher values between groups (stratification). On the study day, mice were weighed and dosed (t=0). Immediately prior to compound administration feed was removed while water remained available, and a first blood sample at a tail incision was drawn (baseline). Further blood samples were drawn at the tail incision at 30, 60, 90, 120, 240, 360, and 480 min.
Statistical analyses are performed with Everstat Version 6.0 based on SAS by 2-way-ANOVA on repeated measures, followed by Dunnett's post-hoc test against vehicle-control. Differences are considered statistically significant at the p<0.05 level.

[6] = pH 4.5, read-out: Solubility (pH 4.5)
[7] = pH 7.4, read-out: Solubility (pH 7.4)

Row | SMILES | Stability (pH 4.5) [1] [%] | Stability (pH 7.4) [1] [%] | EC50 [3] [pM] | EC50 [4] [pM] | also measured
1 | CCCCCCCCCCCCCCCC(=O)N[C@@H](CCC(=O)NCCCC[C@H](NC(=O)[C@H](CCC(N)=O)NC(=O)[C@@H](NC(=O)[C@H](CO)NC(=O)[C@H](CC(C)C)NC(=O)[C@H](CC(=O)O)NC(=O)[C@H](CO)NC(=O)[C@@H](NC(=O)[C@H](Cc1ccccc1)NC(=O)[C@@H](NC(=O)CNC(=O)[C@H](CCC(=O)O)NC(=O)C(C)(C)NC(=O)[C@@H](N)Cc1ccc(O)cc1)[C@@H](C)O)[C@@H](C)O)[C@@H](C)CC)C(=O)N[C@@H](CCC(=O)O)C(=O)N[C@@H](CCC(=O)O)C(=O)N[C@@H](CCCNC(=N)N)C(=O)N[C@@H](C)C(=O)N[C@@H](C)C(=O)NC1(C(=O)N[C@@H](CCC(=O)O)C(=O)N[C@@H](Cc2ccccc2)C(=O)N[C@H](C(=O)N[C@@H](CCC(=O)O)C(=O)N[C@@H](Cc2c[nH]c3ccccc23)C(=O)N[C@@H](CC(C)C)C(=O)N[C@@H](CCCCN)C(=O)N[C@@H](CC(N)=O)C(=O)N[C@H](C(=O)NCC(=O)N2CCC[C@H]2C(=O)N[C@@H](CO)C(=O)N[C@@H](CO)C(=O)NCC(=O)N[C@@H](C)C(=O)N2CCC[C@H]2C(=O)N2CCC[C@H]2C(=O)N2CCC[C@H]2C(=O)N[C@@H](CO)C(N)=O)[C@@H](C)O)[C@@H](C)CC)CCNCC1)C(=O)O [SEQ ID NO: 8, Y-Aib-E-G-T-F-T-S-D-L-S-I-Q-K(γE-x53)-E-E-R-A-A-Pip-E-F-I-E-W-L-K-N-T-G-P-S-S-G-A-P-P-P-S-NH2] (H-Y[Aib]EGTFTSDLSIQK([γGlu-Palmitoyl])EERAA[Api]EFIEWLKNTGPSSGAPPPS-NH2) | 93.0 | 93.0 | 16.3 |  | solubility [2, 6]: > 1000 µg/mL; solubility [2, 7]: > 1000 µg/mL
2 | CCCCCCCCCCCCCCCC(=O)N[C@@H](CCC(=O)NCCCC[C@H](NC(=O)[C@H](CCC(N)=O)NC(=O)[C@@H](NC(=O)[C@H](CO)NC(=O)[C@H](CC(C)C)NC(=O)[C@H](CC(=O)O)NC(=O)[C@H](CO)NC(=O)[C@@H](NC(=O)[C@H](Cc1ccccc1)NC(=O)[C@@H](NC(=O)CNC(=O)[C@H](CCC(=O)O)NC(=O)C(C)(C)NC(=O)[C@@H](N)Cc1ccc(O)cc1)[C@@H](C)O)[C@@H](C)O)[C@@H](C)CC)C(=O)N[C@@H](CCC(=O)O)C(=O)N[C@@H](CCC(=O)O)C(=O)N[C@@H](CCCNC(=N)N)C(=O)N[C@@H](C)C(=O)N[C@@H](C)C(=O)N[C@@](C)(CCCN)C(=O)N[C@@H](CCC(=O)O)C(=O)N[C@@H](Cc1ccccc1)C(=O)N[C@H](C(=O)N[C@@H](CCC(=O)O)C(=O)N[C@@H](Cc1c[nH]c2ccccc12)C(=O)N[C@@H](CC(C)C)C(=O)N[C@@H](CCCCN)C(=O)N[C@@H](CC(N)=O)C(=O)N[C@H](C(=O)NCC(=O)N1CCC[C@H]1C(=O)N[C@@H](CO)C(=O)N[C@@H](CO)C(=O)NCC(=O)N[C@@H](C)C(=O)N1CCC[C@H]1C(=O)N1CCC[C@H]1C(=O)N1CCC[C@H]1C(=O)N[C@@H](CO)C(N)=O)[C@@H](C)O)[C@@H](C)CC)C(=O)O [SEQ ID NO: 10, Y-Aib-E-G-T-F-T-S-D-L-S-I-Q-K(γE-x53)-E-E-R-A-A-(S)MeOrn-E-F-I-E-W-L-K-N-T-G-P-S-S-G-A-P-P-P-S-NH2] (H-Y[Aib]EGTFTSDLSIQK([γGlu-Palmitoyl])EERAA[αMeOrn]EFIEWLKNTGPSSGAPPPS-NH2) |  |  | 7.1 | 4.9 | 
3 | CCCCCCCCCCCCCCCCCC(=O)N[C@@H](CCC(=O)NCCCC[C@H](NC(=O)[C@H](CCC(N)=O)NC(=O)[C@H](CCCCN)NC(=O)[C@H](CO)NC(=O)[C@H](CC(C)C)NC(=O)[C@H](CC(=O)O)NC(=O)[C@H](CO)NC(=O)[C@@H](NC(=O)[C@H](Cc1ccccc1)NC(=O)[C@@H](NC(=O)CNC(=O)[C@H](CCC(N)=O)NC(=O)C(C)(C)NC(=O)[C@@H](N)Cc1ccc(O)cc1)[C@@H](C)O)[C@@H](C)O)C(=O)N[C@@H](CC(=O)O)C(=O)N[C@@H](CCC(=O)O)C(=O)N[C@@H](CCC(N)=O)C(=O)N[C@@H](CCCNC(=N)N)C(=O)N[C@@H](C)C(=O)N[C@@](C)(CCCCN)C(=O)N[C@@H](CCC(=O)O)C(=O)N[C@@H](Cc1ccccc1)C(=O)N[C@H](C(=O)N[C@@H](CCC(=O)O)C(=O)N[C@@H](Cc1c[nH]c2ccccc12)C(=O)N[C@@H](CC(C)C)C(=O)N[C@@H](CCCCN)C(=O)N[C@@H](CO)C(=O)NCC(=O)NCC(=O)N1CCC[C@H]1C(=O)N[C@@H](CO)C(=O)N[C@@H](CO)C(=O)NCC(=O)N[C@@H](C)C(=O)N1CCC[C@H]1C(=O)N1CCC[C@H]1C(=O)N1CCC[C@H]1C(=O)N[C@@H](CO)C(N)=O)[C@@H](C)CC)C(=O)O [SEQ ID NO: 12, Y-Aib-Q-G-T-F-T-S-D-L-S-K-Q-K(γE-x70)-D-E-Q-R-A-(S)MeLys-E-F-I-E-W-L-K-S-G-G-P-S-S-G-A-P-P-P-S-NH2] | 98.0 | 91.0 |  |  | maximal effect, glucose reduction [5]: ~11 mmol/L; solubility at 2 h [2, 6]: > 1000 µg/mL; solubility at 2 h [2, 7]: 983 µg/mL (≈ 211 µM)
4 | CCCCCCCCCCCCCCCCCC(=O)N[C@@H](CCC(=O)NCCCC[C@H](NC(=O)[C@H](CCC(N)=O)NC(=O)[C@@H](NC(=O)[C@H](CO)NC(=O)[C@H](CC(C)C)NC(=O)[C@H](CC(=O)O)NC(=O)[C@H](CO)NC(=O)[C@@H](NC(=O)[C@H](Cc1ccccc1)NC(=O)[C@@H](NC(=O)CNC(=O)[C@H](CCC(N)=O)NC(=O)C(C)(C)NC(=O)[C@@H](N)Cc1ccc(O)cc1)[C@@H](C)O)[C@@H](C)O)[C@@H](C)CC)C(=O)N[C@@H](CC(=O)O)C(=O)N[C@@H](CCC(=O)O)C(=O)N[C@@H](CCC(N)=O)C(=O)N[C@@H](CCCNC(=N)N)C(=O)N[C@@H](C)C(=O)N[C@](C)(CCCCN)C(=O)N[C@@H](CCC(=O)O)C(=O)N[C@@H](Cc1ccccc1)C(=O)N[C@H](C(=O)N[C@@H](CCC(=O)O)C(=O)N[C@@H](Cc1c[nH]c2ccccc12)C(=O)N[C@@H](CC(C)C)C(=O)N[C@@H](CCCCN)C(=O)N[C@@H](CO)C(=O)NCC(=O)NCC(=O)N1CCC[C@H]1C(=O)N[C@@H](CO)C(=O)N[C@@H](CO)C(=O)NCC(=O)N[C@@H](C)C(=O)N1CCC[C@H]1C(=O)N1CCC[C@H]1C(=O)N1CCC[C@H]1C(=O)N[C@@H](CO)C(N)=O)[C@@H](C)CC)C(=O)O [SEQ ID NO: 13, Y-Aib-Q-G-T-F-T-S-D-L-S-I-Q-K(γE-x70)-D-E-Q-R-A-(R)MeLys-E-F-I-E-W-L-K-S-G-G-P-S-S-G-A-P-P-P-S-NH2] (H-Y[Aib]QGTFTSDLSIQK([γGlu-Stearoyl])DEQRA[d(αMeK)]EFIEWLKSGGPSSGAPPPS-NH2) |  |  |  | 13.6 | 
5 | CCCCCCCCCCCCCCCCCC(=O)N[C@@H](CCC(=O)NCCCC[C@H](NC(=O)[C@H](CCC(N)=O)NC(=O)[C@@H](NC(=O)[C@H](CO)NC(=O)[C@H](CC(C)C)NC(=O)[C@H](CC(=O)O)NC(=O)[C@H](CO)NC(=O)[C@@H](NC(=O)[C@H](Cc1ccccc1)NC(=O)[C@@H](NC(=O)CNC(=O)[C@H](CCC(=O)O)NC(=O)C(C)(C)NC(=O)[C@@H](N)Cc1ccc(O)cc1)[C@@H](C)O)[C@@H](C)O)[C@@H](C)CC)C(=O)N[C@@H](CC(=O)O)C(=O)N[C@@H](CCC(=O)O)C(=O)N[C@@H](CCCNC(=N)N)C(=O)N[C@@H](C)C(=O)N[C@@H](C)C(=O)N[C@@](C)(CCCCN)C(=O)N[C@@H](CCC(=O)O)C(=O)N[C@@H](Cc1ccccc1)C(=O)N[C@H](C(=O)N[C@@H](CCC(=O)O)C(=O)N[C@@H](Cc1c[nH]c2ccccc12)C(=O)N[C@@H](CC(C)C)C(=O)N[C@@H](CCCCN)C(=O)N[C@@H](CC(N)=O)C(=O)N[C@H](C(=O)NCC(=O)N1CCC[C@H]1C(=O)N[C@@H](CO)C(=O)N[C@@H](CO)C(=O)NCC(=O)N[C@@H](C)C(=O)N1CCC[C@H]1C(=O)N1CCC[C@H]1C(=O)N1CCC[C@H]1C(=O)N[C@@H](CO)C(N)=O)[C@@H](C)O)[C@@H](C)CC)C(=O)O [SEQ ID NO: 14, Y-Aib-E-G-T-F-T-S-D-L-S-I-Q-K(γE-x70)-D-E-R-A-A-(S)MeLys-E-F-I-E-W-L-K-N-T-G-P-S-S-G-A-P-P-P-S-NH2] (H-Y[Aib]EGTFTSDLSIQK([γGlu-Stearoyl])DERAA[αMeK]EFIEWLKNTGPSSGAPPPS-NH2) |  |  |  | 7.2 | 
